# Data published in patent EP0929545B1, “TRICYCLIC INHIBITORS OF FARNESYL PROTEIN TRANSFERASE” (SCHERING CORPORATION, priority 1996, dated 1998).
# Read-outs that look alike come from different tables or passages of the source.
# Experiments:
# [1] = molecular target: farnesyl protein transferase (Homo sapiens, UniProt P49354+P49356); test: FPT IC50, inhibition of farnesyl protein transferase, in vitro enzyme assay; type: biochemical; details: range stated jointly for the listed compounds
# Method: (§1) FPT IC50 (inhibition of farnesyl protein transferase, in vitro enzyme assay) and COS Cell IC50 (Cell-Based Assay) were determined following the assay procedures described in WO 95/10516, published April 20, 1995. GGPT IC50 (inhibition of geranylgeranyl protein transferase, in vitro enzyme assay), Cell Mat Assay, and anti-tumor activity (in vivo anti-tumor studies) could be determined by the assay procedures described in WO 95/ 10516. The disclosure of WO 95/ 10516 is incorporated herein by reference thereto.
# [2] = system: Human tumor cells; test: Soft Agar Assay (anchorage-independent growth); type: cell-based; details: range stated jointly for the listed compounds, upper end printed as >500
# Method: Anchorage-independent growth is a characteristic of tumorigenic cell lines. Human tumor cells are suspended in growth medium containing 0.3% agarose and an indicated concentration of a farnesyl transferase inhibitor. The solution is overlayed onto growth medium solidified with 0.6% agarose containing the same concentration of farnesyl transferase inhibitor as the top layer. After the top layer is solidified, plates are incubated for 10-16 days at 37°C under 5% CO2 to allow colony outgrowth. After incubation, the colonies are stained by overlaying the agar with a solution of MTT (3-[4,5-dimethylthiazol-2-yl]-2,5-diphenyltetrazolium bromide, Thiazolyl blue) (1 mg/mL in PBS). Colonies can be counted and the IC50's can be determined.
# [3] = system: COS Cell; test: COS Cell IC50 (Cell-Based Assay); details: range stated jointly for the listed compounds
# Method: as §1
# [4] = H-ras, read-out: FPT IC50 (H-ras)
# [5] = K-ras, read-out: FPT IC50 (K-ras)
Structure (SMILES),"IC50 [1, 4]","IC50 [1, 5]",IC50 [2],IC50 [3]
O=C(CC1CCN(c2nccs2)CC1)N1CCC([C@H]2c3ncc(Br)cc3CCc3cc(Cl)cc(Br)c32)CC1 [Compound 3.0],4.6 to 140 nM,–,–,–
O=C(CC1CCN(c2nnnn2-c2ccccc2)CC1)N1CCC([C@H]2c3ncc(Br)cc3CCc3cc(Cl)cc(Br)c32)CC1 [Compound 2.0],4.6 to 140 nM,–,–,–
O=C(CC1CCN(c2ccccn2)CC1)N1CCC([C@H]2c3ncc(Br)cc3CCc3cc(Cl)cc(Br)c32)CC1 [Compound 5.0],4.6 to 140 nM,29 to 91 nM,≥ 80 nM,35 to 120 nM
O=C(CC1CCN(c2nc3ccccc3o2)CC1)N1CCC([C@H]2c3ncc(Br)cc3CCc3cc(Cl)cc(Br)c32)CC1 [Compound 4.0],4.6 to 140 nM,29 to 91 nM,–,35 to 120 nM
"CC(=O)OC[C@H]1O[C@@H](N2CCC(CC(=O)N3CCC([C@H]4c5ncc(Br)cc5CCc5cc(Cl)cc(Br)c54)CC3)CC2)[C@H](OC(C)=O)[C@@H](OC(C)=O)[C@@H]1OC(C)=O [Compound 9.3, (+) -4-(3,10-dibromo-8-chloro-6,11-dihydro-5H-benzo[5,6]cyclohepta[1,2-b]pyridin-11-yl)-1-[[1-[2,3,4,6-tetra-O-acetyl-1-beta-D-glucopyranosyl]-4-piperidinyl]acetyl]piperidine]",4.6 to 140 nM,29 to 91 nM,≥ 80 nM,35 to 120 nM
O=C(CC1CCN(c2ncccn2)CC1)N1CCC([C@H]2c3ncc(Br)cc3CCc3cc(Cl)cc(Br)c32)CC1 [Compound 6.0],4.6 to 140 nM,–,–,35 to 120 nM
